Values of other authors in US20080317753A1, “SELECTING PATIENTS FOR THERAPY WITH A HER INHIBITOR” (GENENTECH, INC., priority 2004, published 2008).
Where a name gives a salt, the structure may show the parent alone.

Assays:
[1] = single agent
[2] = tested on: HER2-overexpressing metastatic breast cancers; conditions: patients with HER2-overexpressing metastatic breast cancers with extensive prior anti-cancer therapy
[3] = combined with gemcitabine in several combinations of different chemotherapies, phase II trials

Row | Compound | nausea and vomiting, combined incidence [1] | clinical activity [2] | tolerability [3]
1 | Nc1ccn([C@@H]2O[C@H](CO)[C@@H](O)C2(F)F)c(=O)n1 [gemcitabine, 2′-deoxy-2′,2′-difluorocytidine monohydrochloride (b-isomer)] | 69% |  | 
2 | trastuzumab: recombinant humanized version of murine HER2 antibody 4D5; light and heavy chain sequences SEQ ID NOS. 15 and 16 |  | clinically active | well tolerated with no observed cardiac or unexpected toxicities
